Assay results published in the SangsterLogP compilation.
Non-standard residues stand in square brackets, D forms with d. Residues, ends and D or L forms follow the SMILES beside them.

Assays:
[1] = method code SF, from PMID: 3183
[2] = method code SF-AS, from DOI: 10.1016/0304-4165(87)90236-4, PMID: 2889474
[3] = method code SF, from DOI: 10.1021/jm00169a014, PMID: 2362268; conditions: pH 7.4
[4] = method code SF-HPLC, from DOI: 10.1016/0168-3659(92)90067-2
[5] = method code SF-AS, from DOI: 10.1021/jm9807104, PMID: 10514282; conditions: pH 7.0
[6] = not given; remark: listed apart in the source
[7] = method code SF-AS, from DOI: 10.1021/jm00371a026, PMID: 6425501; conditions: pH 7.4
[8] = not given; remark: listed apart in the source
[9] = method code SF-HPLC, from Pan, J.; Wu, Z.; Hui, A.; Tao, M. (2011). Determination of partition coefficients of ginkgolide beta and its prodrug. Shizhen Guo Yi Guo Yao, 22(10)2397-2400.
[10] = method code SF-RC, from DOI: 10.1021/jm050166g.s001, PMID: 16162001; conditions: pH 7.4
[11] = method code SF-RC, from DOI: 10.1021/es60172a005, PMID: 22280000
[12] = not given; remark: listed apart in the source
[13] = not given; remark: listed apart in the source
[14] = method code SF-AS, from DOI: 10.1021/jm300468t, PMID: 22574992; conditions: pH 9.0
[15] = not given; remark: listed apart in the source
[16] = method code SF-AS, from PMID: 7271269; conditions: pH 6.0
[17] = not given; remark: listed apart in the source
[18] = method code SF-RC, from PMID: 447850; conditions: pH 7.4
[19] = not given; remark: listed apart in the source
[20] = method code SF-HPLC, from DOI: 10.1002/jps.23034, PMID: 22213574; conditions: pH 7.4
[21] = not given; remark: listed apart in the source
[22] = method code SF-RC, from DOI: 10.1002/jlcr.3404, PMID: 27126914; conditions: pH 7.4
[23] = method code SF-AS, from DOI: 10.1111/j.2042-7158.1983.tb02957.x, PMID: 6135774
[24] = not given; remark: listed apart in the source
[25] = method code SF-HPLC, from Suo, X.; Li, M.; Wang, Y.; Zhu, S. (2010). Study on oil-water partition coefficient of hydroxycamptothecin and its absorption efficiency in rat small intestine. Chinese Traditional Patent Medicine, …; conditions: pH 7.4
[26] = method code SF-RC, from DOI: 10.1016/j.nucmedbio.2006.10.003, PMID: 17210465; conditions: pH 7.4
[27] = method code SF-AS, from PMID: 7460030; conditions: pH 7.3
[28] = not given; remark: listed apart in the source
[29] = method code SF, from DOI: 10.1002/syn.20842; conditions: pH 7.4
[30] = not given; remark: listed apart in the source
[31] = method code SF-HPLC, from DOI: 10.1002/jps.23140, PMID: 22499243; conditions: pH 7.4
[32] = method code SF-HPLC, from DOI: 10.1016/j.ejps.2012.04.024, PMID: 22609526
[33] = method code SF-HPLC, from DOI: 10.1016/j.jpba.2007.09.019, PMID: 17988818
[34] = not given; remark: listed apart in the source
[35] = not given; remark: listed apart in the source
[36] = from Zeng, J.; Huang, T.; Li, F.; Zhu, Z.; Chen, L.; Feng, L. (2014). Determination of apparent oil-water partition coefficient and equilibrium solubility of levonorgestrel and gestodene by RP-HPLC. …
[37] = not given; remark: listed apart in the source
[38] = method code SF, from DOI: 10.1021/jm300192x, PMID: 22519985; conditions: pH 7.4
[39] = not given; remark: listed apart in the source
[40] = method code SF-RC, from DOI: 10.1016/j.nucmedbio.2009.01.009, PMID: 19423014; conditions: pH 7.4
[41] = method code SF-AS, from DOI: 10.1002/jps.2600720808, PMID: 6620139
[42] = not given; remark: listed apart in the source

CCCCC(CC)CN1CN(CC(CC)CCCC)CC(C)(N)C1 (stereo not drawn)
logP [1]: 2.05

C=C1C(=O)OC2CC(C)C3C=CC(=O)C3(C)C(OC(=O)C=C(C)C)C12 (stereo not drawn)
logP [2]: 1.47

CN(C)CCO[C@]1(c2ccccc2)C[C@H]2CC[C@]1(C)C2(C)C
logP: 5.9

CC(=O)Oc1ccc(C(c2ccc(OC(C)=O)cc2)c2ccccn2)cc1
logD [3]: 2.64

CC(=O)N[C@H](Cc1ccc(O)cc1)C(=O)N[C@H](Cc1ccc(O)cc1)C(N)=O (Ac-[dY]-[dY]-NH2)
logP [4]: -0.16

COC(=O)C(C)NP(=O)(Oc1cccc(C(F)(F)F)c1)OC1C=CC(n2cc(C)c(=O)[nH]c2=O)O1 (stereo not drawn)
logD [5]: 1.57

COCCOC(=O)C1=C(C)NC(C)=C(C(=O)OC(C)C)C1c1cccc([N+](=O)[O-])c1 (stereo not drawn)
logP [6]: 2.82

CO[C@@]12[C@H](COC(N)=O)C3=C(C(=O)C(C)=C(Nc4cccnc4)C3=O)N1C[C@@H]1N[C@@H]12
logD [7]: 0.52

CSc1nc(Nc2ccccc2)c2cnn(CCCl)c2n1
logP [8]: 5.49

CC1C(=O)OC2C(O)C34C5CC(C(C)(C)C)C36C(OC(=O)C6O)OC4(C(=O)O5)C12O (stereo not drawn)
logP [9]: 0.59

CN(C)c1ccc(C=Cc2ccc(OCC(CO)CF)cc2)cc1 (stereo not drawn)
logD [10]: 3.14

Cc1ccc2cc3c(ccc4ccccc43)c3c2c1CC3
logP [11]: 6.42

COc1cc(NC(C)=O)c(I)cc1C(=O)NCCCCN1CC2CCC1C2 (stereo not drawn)
logP [12]: 0.8

CCCCC[C@H](O)/C=C/[C@H]1[C@H](O)CC(=O)[C@@H]1C/C=C\CCCC(=O)O
logP [13]: 2.9

Cc1c2c3cc(NC(=O)CNC(=O)CN)ccc3nc-2n(C)c2ccccc12
logD [14]: 0.85

Oc1ccc2ccccc2c1/N=N/c1ccc(/N=N/c2ccccc2)cc1
logP [15]: 2.11

COCOC(=O)C1N2C(=O)C(N3C(=O)C(c4ccc(O)cc4)NC3(C)C)C2SC1(C)C (stereo not drawn)
logD [16]: 0.3

CNC(=O)c1ccc(Oc2ccc3c(c2)CCN(C2CCC2)CC3)nc1
logP [17]: 2.24

C[C@]12CCC(=O)C=C1CC[C@@H]1[C@@H]2[C@@H](O)C[C@]2(C=O)[C@@H](C(=O)CO)CC[C@@H]12
logD [18]: 1.08

O[C@H](CNC[C@H](O)[C@H]1COc2ccccc2O1)[C@@H]1COc2ccccc2O1
logP [19]: 2.45

O=S(=O)(c1ccc(C(F)(F)F)cc1)N1c2cc(F)c(F)cc2-c2[nH]ncc2C1C1CC1 (stereo not drawn)
logD [20]: 3.91

FCCC1OC2(CCN(Cc3ccccc3)CC2)c2ccccc21 (stereo not drawn)
logP [21]: 3.58

COc1ccc2c(C3=C(c4cn(C)c5ccc(I)cc45)C(=O)NC3=O)coc2c1
logD [22]: 3.23

COc1cc(N)c(Cl)cc1C(=O)NC1CCN(Cc2ccccc2)CC1
logP [23]: 2.99

N#CCNC(=O)[C@@H]1CCCC[C@H]1C(=O)N1CCN(c2ccccc2)CC1
logP [24]: 1.8

CC[C@@]1(O)C(=O)OCc2c1cc1n(c2=O)Cc2cc3cc(O)ccc3nc2-1
logD [25]: 1.33

CN(C)c1ccc(/C=C/c2ccc(OCCOCCOCCF)nc2)cc1
logD [26]: 3.22

CCCCCOc1cccc(NC(=O)OC2CCCCC2)c1-n1ccnc1
logD [27]: 3.38

O=C1C(=O)c2ccccc2C(O)=C1C1CCC(c2ccc(Cl)cc2)CC1 (stereo not drawn)
logP [28]: 5.07

CCCS(=O)(=O)N1CCC(CNC(=O)c2ccc(Cl)cc2Cl)(c2cccc(F)n2)CC1
logD [29]: 2.9

CN(C)Cc1ccc(CSCCNc2[nH]cc(Cc3ccccc3)c2[N+](=O)[O-])o1
logP [30]: 3.65

CCCCCCCCCCCCOP1(=O)OCC(Cn2ccc(N)nc2=O)O1 (stereo not drawn)
logD [31]: 3.89

O=c1c(O[C@@H]2OC[C@@H](O)[C@H](O)[C@H]2O)c(-c2ccc(O)c(O)c2)oc2cc(O)cc(O)c12
logP [32]: 1.75

COc1cc(C=Cc2cc(/C=C/c3ccc(O)c(OC)c3)n[nH]2)ccc1O
logP [33]: 1.78

CN(C)c1ccc(-c2ccc3cc(OCC(O)CF)ccc3n2)cc1 (stereo not drawn)
logP [34]: 3.03

O=C(NN(C(=O)c1ccccc1)c1ccccc1)c1ccccc1
logP [35]: 3.32

C#C[C@]1(O)C=C[C@H]2[C@@H]3CCC4=CC(=O)CC[C@@H]4[C@H]3CC[C@@]21CC
logP [36]: 3.45

CCOc1ccccc1OCCN[C@H](C)Cc1ccc(OC)c(S(N)(=O)=O)c1
logP [37]: 2.2

OCC1OC(c2ccc(N3CCc4ccccc43)cc2)C(O)C(O)C1O (stereo not drawn)
logD [38]: 2.3

COc1cc(C2c3cc4c(cc3C(O)C3COC(=O)C23)OCO4)cc(OC)c1OC (stereo not drawn)
logP [39]: 2.01

CCCCOc1c(OC)ccc2cc(C(=O)NC3CCCCC3)c(=O)[nH]c12
logD [40]: 3.9

C[C@]12CCC(=O)C=C1CC[C@@H]1[C@@H]2CC[C@@]2(C)[C@H]1CC[C@]2(C)O
logP [41]: 3.36

Cc1cc2c(-c3ccccn3)c[nH]c2c(C(=O)Nc2ncccc2C)n1
logP [42]: 4.7
